Test results: patent US20150282488A1, “COMPOSITIONS AND METHODS FOR CONTROLLING PLANT-PARASITE NEMATODE” (BAYER CROPSCIENCE LP, priority 2012, published 2015)

Test system: R. reniformis
Experiment: Greenhouse trial with treated cotton seeds in autoclaved soil
Type: in vivo, Rotlyenchulus reniformis
Conditions: seed treatment 500 g ai/100 kg
Excerpt: Anti-nematodal activity is understood as meaning any activity useful in controlling or killing nematodes, such as reducing nematode egg hatching or paralyzing juveniles of nematodes. Testing for anti-nematodal activity is done both in-vitro and in-vivo through laboratory and greenhouse procedures. In-vitro testing can involve testing eggs and/or juvenile nematodes in selective media in small 96-well plates and measurements done by microscopic evaluations. Proper control treatments would be combined to monitor and compare activity. Under greenhouse studoes soil was autoclaved using two 90 minute cycles at 130° C. at […] pressure with a 24 hour cool down between cycles to remove any natural competition for the microflora. The vermiform stages were extracted from the soil by the modified gravity screening and sucrose centrifugation-flotation. Eggs stages were extracted from cotton roots by shaking the root system in a 1% NaOCl solution for four minutes at 120 rpm. The nematode suspension was collected and rinsed with water through a 25 μm sieve. Females in roots were stained with acid fuschin to facilitate enumeration of the females invading the root. Variables measured included plant height, shoot and root weights, females and eggs per gram of root, and the number of vermiform life stages in soil. […]
Rotlyenchulus reniformis vermiform life stages were extracted from the soil by modified gravity screening and sucrose centrifugation-flotation. […] Vermiform life stages and eggs were counted under an inverted TS 100 Nikon microscope at 40× magnification. Females embedded in the root systems were quantified at 5× magnification utilizing the Nikon SMZ800 […] microscope. Variables measured were plant height, shoot and root weight, females and eggs per gram of root, and the number of vermiform life stages in 500 cm^3 of soil. […] Data were analyzed in SAS 9.1 (SAS Institute Inc.). The distributional assumption was evaluated with the student panel graphs of the GLIMMIX procedure. […]

## O=[N+]([O-])NC1=NCCN1Cc1ccc(Cl)nc1 [imidacloprid]
  effect on R. reniformis life stages: did not have any effect
  effect on cotton plant growth: did not have any effect
  nematicidal activity: did not show any nematicidal activity
